Values after ≈ are worked out from the molar mass of the structure shown.
Experiments:
Assay type in all cases: functional
[1] = tested on: Staphylococcus aureus; experiment: Antibacterial activity against Staphylococcus aureus CJ 234 R
[2] = tested on: Staphylococcus aureus; experiment: Antibacterial activity against Staphylococcus aureus CJ 200
[3] = tested on: Staphylococcus aureus; experiment: Antibacterial activity against Staphylococcus aureus CJ 251
[4] = tested on: Staphylococcus aureus; experiment: Antibacterial activity against Staphylococcus aureus CJ 288
[5] = tested on: Staphylococcus epidermidis; experiment: Antibacterial activity against Staphylococcus epidermidis CK 5
[6] = tested on: Corynebacterium xerosis; experiment: Antibacterial activity against Corynebacterium xerosis FF
[7] = tested on: Staphylococcus aureus; experiment: Antibacterial activity against Staphylococcus aureus CJ 247

CC(=O)O[C@H]1C[C@@]2(C)[C@@H](C[C@@H](O)[C@H]3[C@@]4(C)CC[C@@H](O)[C@@H](C)C4CC[C@@]32C)/C1=C(\CCCCc1ccc(N=[N+]=[N-])cc1)C(=O)O (stereo partly specified)
MIC [1]: 1 µg/mL (≈ 1.65 µM) | MIC [2]: 1 µg/mL (≈ 1.65 µM) | MIC [3]: 1 µg/mL (≈ 1.65 µM) | MIC [4]: 1 µg/mL (≈ 1.65 µM) | MIC [5]: 4 µg/mL (≈ 6.58 µM) | MIC [6]: 0.016 µg/mL (≈ 0.0263 µM)

CC(=O)O[C@H]1C[C@@]2(C)[C@@H](C[C@@H](O)[C@H]3[C@@]4(C)CC[C@@H](O)[C@@H](C)C4CC[C@@]32C)/C1=C(\CCCCc1ccc(C(=O)c2ccccc2)cc1)C(=O)O (stereo partly specified)
MIC [7]: 1 µg/mL (≈ 1.49 µM) | MIC [1]: 1 µg/mL (≈ 1.49 µM) | MIC [2]: 4 µg/mL (≈ 5.96 µM) | MIC [3]: 1 µg/mL (≈ 1.49 µM) | MIC [4]: 1 µg/mL (≈ 1.49 µM) | MIC [5]: 1 µg/mL (≈ 1.49 µM) | MIC [6]: 0.016 µg/mL (≈ 0.0238 µM)

CC(=O)O[C@H]1C[C@@]2(C)[C@@H](C[C@@H](O)[C@H]3[C@@]4(C)CC[C@@H](O)[C@@H](C)C4CC[C@@]32C)/C1=C(\CCCCc1ccc(C2(C(F)(F)F)N=N2)cc1)C(=O)O (stereo partly specified)
MIC [1]: 1 µg/mL (≈ 1.48 µM) | MIC [2]: 2 µg/mL (≈ 2.96 µM) | MIC [3]: 1 µg/mL (≈ 1.48 µM) | MIC [4]: 1 µg/mL (≈ 1.48 µM) | MIC [5]: 1 µg/mL (≈ 1.48 µM) | MIC [6]: 0.063 µg/mL (≈ 0.0934 µM)

CC(=O)O[C@H]1C[C@@]2(C)[C@@H](C[C@@H](O)[C@H]3[C@@]4(C)CC[C@@H](O)[C@@H](C)[C@@H]4CC[C@@]32C)/C1=C(\CCC=C(C)C)C(=O)O [FUSIDIC ACID]
MIC [7]: 0.063 µg/mL (≈ 0.122 µM) | MIC [1]: < 0.063 µg/mL | MIC [2]: 0.063 µg/mL (≈ 0.122 µM) | MIC [3]: < 0.063 µg/mL | MIC [4]: < 0.063 µg/mL | MIC [5]: 0.063 µg/mL (≈ 0.122 µM) | MIC [6]: 0.016 µg/mL (≈ 0.031 µM)
